According to ChEMBL document CHEMBL1201862, “PubChem BioAssay data set” (2004):
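96-well plates; 48 h exposure; 5 concentrations. Endpoints by linear interpolation between flanking doses. Not reached: highest tested concentration assigned. Here, GI50 denotes the concentration required for 50% inhibition of growth.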 Calls of active or inactive are those of the source. Cut-off read from the data, not from the text of the source: active = GI50 up to about 1.1 µM and inactive = higher.

Legend:
Experiment in all cases: NCI anticancer screen, dose series, 48 h
ACHN = system: ACHN
CCRF-CEM = system: CCRF-CEM
COLO 205 = system: COLO 205
HCT-15 = system: HCT-15
HT-29 = system: HT-29
KM12 = system: KM12
MCF7 = system: MCF7
MDA-MB-435 = system: MDA-MB-435
NCI-H460 = system: NCI-H460
NCI-H522 = system: NCI-H522
NCI/ADR-RES = system: NCI/ADR-RES
OVCAR-3 = system: OVCAR-3
OVCAR-4 = system: OVCAR-4
OVCAR-5 = system: OVCAR-5
RPMI-8226 = system: RPMI-8226
SK-MEL-28 = system: SK-MEL-28
SW-620 = system: SW-620
MOLT-4 = system: MOLT-4
RXF 393 = system: RXF 393
HL-60 = system: HL-60

SMILES	GI50 (ACHN)	GI50 (CCRF-CEM)	GI50 (COLO 205)	GI50 (HCT-15) [µM]	GI50 (HT-29)	GI50 (KM12)	GI50 (MCF7)	GI50 (MDA-MB-435)	GI50 (NCI-H460)	GI50 (NCI-H522)	GI50 (NCI/ADR-RES)	GI50 (OVCAR-3)	GI50 (OVCAR-4)	GI50 (OVCAR-5)	GI50 (RPMI-8226)	GI50 (SK-MEL-28)	GI50 (SW-620)	GI50 (MOLT-4)	GI50 (RXF 393)	GI50 (HL-60)
CC(C)=Cc1cc(CCC/C(C)=C/Cc2c(O)cc(C)c(C(=O)O)c2O)co1	> 100 µM (inactive)	32.1 µM (inactive)	> 100 µM (inactive)	> 100	> 100 µM (inactive)	> 100 µM (inactive)	> 100 µM (inactive)	> 100 µM (inactive)	> 100 µM (inactive)	12.9 µM (inactive)	> 100 µM (inactive)	> 100 µM (inactive)	> 100 µM (inactive)	> 100 µM (inactive)	26.1 µM (inactive)	> 100 µM (inactive)	> 100 µM (inactive)	–	–	–
CC(C)CCNC(=O)C(CC(C)C)NC(=O)[C@H]1O[C@@H]1C(=O)O (some centres undefined)	–	> 100 µM (inactive)	> 100 µM (inactive)	> 100	> 100 µM (inactive)	> 100 µM (inactive)	> 100 µM (inactive)	> 100 µM (inactive)	> 100 µM (inactive)	> 100 µM (inactive)	> 100 µM (inactive)	> 100 µM (inactive)	> 100 µM (inactive)	> 100 µM (inactive)	–	> 100 µM (inactive)	> 100 µM (inactive)	> 100 µM (inactive)	–	–
O=C1C(c2c(O)[nH]c3ccc(F)cc23)=Nc2ccccc21	> 100 µM (inactive)	28 µM (inactive)	> 100 µM (inactive)	> 100	> 100 µM (inactive)	> 100 µM (inactive)	6.56 µM (inactive)	> 100 µM (inactive)	> 100 µM (inactive)	> 100 µM (inactive)	> 100 µM (inactive)	> 100 µM (inactive)	–	> 100 µM (inactive)	> 100 µM (inactive)	> 100 µM (inactive)	> 100 µM (inactive)	21.1 µM (inactive)	3.19 µM (inactive)	–
Cc1ccccc1NC(=O)Cc1csc2[n+]1C(=O)/C(=C/c1ccc([N+](=O)[O-])cc1)S2	24.2 µM (inactive)	–	36 µM (inactive)	24.3	36 µM (inactive)	23.7 µM (inactive)	42.9 µM (inactive)	30.3 µM (inactive)	22.1 µM (inactive)	–	42.4 µM (inactive)	31.2 µM (inactive)	12.1 µM (inactive)	37.8 µM (inactive)	–	37.7 µM (inactive)	33.6 µM (inactive)	25.5 µM (inactive)	–	27.7 µM (inactive)
COC(=O)C1CCC(=S)N1C(=O)c1ccccc1 (centres undefined)	> 100 µM (inactive)	> 100 µM (inactive)	> 100 µM (inactive)	> 100	> 100 µM (inactive)	> 100 µM (inactive)	> 100 µM (inactive)	> 100 µM (inactive)	40.6 µM (inactive)	> 100 µM (inactive)	> 100 µM (inactive)	> 100 µM (inactive)	> 100 µM (inactive)	> 100 µM (inactive)	> 100 µM (inactive)	> 100 µM (inactive)	–	26.5 µM (inactive)	> 100 µM (inactive)	–
O=C(CC(C(=O)c1ccsc1)c1ccsc1)c1ccsc1 (centres undefined)	> 100 µM (inactive)	43.1 µM (inactive)	> 100 µM (inactive)	61.4	77.6 µM (inactive)	42.7 µM (inactive)	70.6 µM (inactive)	44.6 µM (inactive)	60 µM (inactive)	–	32.1 µM (inactive)	–	62.1 µM (inactive)	–	33.5 µM (inactive)	82.8 µM (inactive)	> 100 µM (inactive)	35.6 µM (inactive)	–	35.2 µM (inactive)
CN(C)S(=O)(=O)c1ccc2c(c1)/C(=C1/Nc3ccccc3C1=O)C(=O)N2	12.1 µM (inactive)	> 100 µM (inactive)	> 100 µM (inactive)	87.9	> 100 µM (inactive)	> 100 µM (inactive)	24.8 µM (inactive)	> 100 µM (inactive)	24.7 µM (inactive)	25.5 µM (inactive)	71.9 µM (inactive)	93.1 µM (inactive)	> 100 µM (inactive)	> 100 µM (inactive)	> 100 µM (inactive)	> 100 µM (inactive)	> 100 µM (inactive)	14.1 µM (inactive)	1.71 µM (inactive)	–
N=c1c2sc3nc4ccccc4n3c2ncn1Cc1ccccc1	> 100 µM (inactive)	> 100 µM (inactive)	> 100 µM (inactive)	> 100	–	0.957 µM (active)	> 100 µM (inactive)	> 100 µM (inactive)	–	> 100 µM (inactive)	> 100 µM (inactive)	> 100 µM (inactive)	> 100 µM (inactive)	> 100 µM (inactive)	> 100 µM (inactive)	> 100 µM (inactive)	> 100 µM (inactive)	> 100 µM (inactive)	63.5 µM (inactive)	–
CC(=O)OCCn1c(Cc2ccc([N+](=O)[O-])cc2)nn(C(C)=O)c1=O	> 100 µM (inactive)	> 100 µM (inactive)	> 100 µM (inactive)	> 100	> 100 µM (inactive)	> 100 µM (inactive)	> 100 µM (inactive)	> 100 µM (inactive)	> 100 µM (inactive)	> 100 µM (inactive)	> 100 µM (inactive)	> 100 µM (inactive)	> 100 µM (inactive)	> 100 µM (inactive)	> 100 µM (inactive)	> 100 µM (inactive)	> 100 µM (inactive)	> 100 µM (inactive)	–	> 100 µM (inactive)
ClCCN(CCCl)c1ccc(/C=N/Nc2ccnc3ccccc23)cc1	1.84 µM (inactive)	1.49 µM (inactive)	1.86 µM (inactive)	1.35	0.736 µM (active)	1.58 µM (inactive)	3.03 µM (inactive)	1.53 µM (inactive)	2.73 µM (inactive)	1.83 µM (inactive)	1.9 µM (inactive)	1.88 µM (inactive)	1.85 µM (inactive)	1.5 µM (inactive)	1.32 µM (inactive)	1.63 µM (inactive)	1.87 µM (inactive)	1.13 µM (inactive)	–	–
CN1CCC(n2[nH]c(-c3ccccc3)c(Cc3ccccc3)c2=O)CC1 [BENZPIPERYLON]	> 100 µM (inactive)	37.9 µM (inactive)	> 100 µM (inactive)	> 100	87.9 µM (inactive)	> 100 µM (inactive)	> 100 µM (inactive)	> 100 µM (inactive)	49.5 µM (inactive)	> 100 µM (inactive)	> 100 µM (inactive)	> 100 µM (inactive)	> 100 µM (inactive)	> 100 µM (inactive)	46.8 µM (inactive)	> 100 µM (inactive)	> 100 µM (inactive)	19.5 µM (inactive)	63 µM (inactive)	–
Cn1c2ccccc2c2c3c(c4c5ccccc5n(C)c4c21)C(=O)N(Cc1ccccc1)C3=O	> 100 µM (inactive)	> 100 µM (inactive)	> 100 µM (inactive)	> 100	> 100 µM (inactive)	> 100 µM (inactive)	> 100 µM (inactive)	> 100 µM (inactive)	> 100 µM (inactive)	> 100 µM (inactive)	> 100 µM (inactive)	–	> 100 µM (inactive)	> 100 µM (inactive)	> 100 µM (inactive)	> 100 µM (inactive)	> 100 µM (inactive)	> 100 µM (inactive)	–	–
CSc1ccc(/C=C2\N=C(c3ccccc3)N(/N=C/c3cc4cc(C)ccc4nc3Cl)C2=O)cc1	16.3 µM (inactive)	12 µM (inactive)	16.7 µM (inactive)	23.3	23.1 µM (inactive)	14.3 µM (inactive)	11.4 µM (inactive)	8.15 µM (inactive)	20.7 µM (inactive)	–	19.1 µM (inactive)	19.5 µM (inactive)	17.1 µM (inactive)	22.9 µM (inactive)	27.6 µM (inactive)	18.2 µM (inactive)	27.4 µM (inactive)	13.5 µM (inactive)	–	22 µM (inactive)
CC(=O)NC1C(OCc2ccccc2)OC(CO)C(O)C1OCC(=O)N1CCCC1C(=O)N[C@@H](CCC(=O)NCCCCNc1c2ccccc2nc2cccc([N+](=O)[O-])c12)C(N)=O (some centres undefined)	26.6 µM (inactive)	–	18.6 µM (inactive)	42.8	16.7 µM (inactive)	31.3 µM (inactive)	9.1 µM (inactive)	18 µM (inactive)	21 µM (inactive)	–	> 100 µM (inactive)	21.6 µM (inactive)	40.7 µM (inactive)	25.8 µM (inactive)	2.64 µM (inactive)	81.8 µM (inactive)	11.5 µM (inactive)	32.5 µM (inactive)	–	–
C=CCNC(=O)N1CC(C)C(=O)Nc2ccccc21 (centres undefined)	> 100 µM (inactive)	> 100 µM (inactive)	> 100 µM (inactive)	> 100	> 100 µM (inactive)	> 100 µM (inactive)	> 100 µM (inactive)	> 100 µM (inactive)	> 100 µM (inactive)	> 100 µM (inactive)	–	> 100 µM (inactive)	> 100 µM (inactive)	> 100 µM (inactive)	> 100 µM (inactive)	> 100 µM (inactive)	> 100 µM (inactive)	> 100 µM (inactive)	> 100 µM (inactive)	> 100 µM (inactive)
O=C(/C=C/c1cccs1)c1ccc([N+](=O)[O-])cc1	> 100 µM (inactive)	> 100 µM (inactive)	> 100 µM (inactive)	> 100	> 100 µM (inactive)	71.9 µM (inactive)	61.7 µM (inactive)	> 100 µM (inactive)	> 100 µM (inactive)	–	83.4 µM (inactive)	–	> 100 µM (inactive)	–	49.4 µM (inactive)	> 100 µM (inactive)	> 100 µM (inactive)	71 µM (inactive)	–	83.2 µM (inactive)
